Experimental data as given in patent US20230404928A1, “NANOCAPSULE AND USES THEREOF” (CHINA MEDICAL UNIVERSITY, priority 2022, published 2023).

Legend:
[1] = drug release behavior study (rtPA release); assay type: physicochemical; conditions: in the first hour
Procedure: To measure the loading of rtPA (rtPA-FANC=(MTDS)) in FANC, analysis using […] protein analysis (BCA) was performed. The encapsulation efficiency (EE) of rtPA in FANC is 73.94% and the loading capacity (LC) is 22.49%. To observe the rtPA release rate of FANC, further drug release behavior studies were conducted. […] This slower release behavior can effectively protect rtPA from metabolic effects and reduce the damage caused in the blood circulation system.

[2] = thrombolysis time and cerebral blood flow after MCAO; assay type: in vivo, mice; conditions: thrombus not completely dissolved
MACO mice = assay: as above; assay type: in vivo
[3] = system: neural precursor cells (NPCs); assay: Ki-67 immunohistochemistry of brain sections (NPC proliferation, SVZ and HDG); assay type: in vivo, mice; conditions: SVZ and HDG areas, versus saline control
Text: FIGS. 9A to 9D show representative images of Ki-67 staining after MTDS with MN treatment in comparison with saline control, free rt-PA, MTDS in SVZ area (FIG. 9A) and HDG area (FIG. 9B). (Scale bar=50 μm). Quantitative data of NPCs by immunohistochemistry staining in SVZ area (FIG. 9C) (Ki-67^+ cells) and HDG area (FIG. 9D) (Ki-67^+ cells).
The subventricular zone (SVZ) and hippocampal dentate gyrus (DG) are known to trigger the activation of resting neural precursor cells (NPCs) when the brain suffers from ischemic injury. NPCs mainly reside in the SVZ, while the DG has the ability to differentiate into a range of neurons and glial cells.

## recombinant tissue-type plasminogen activator [rtPA]
[1]
  rtPA release: more than 60%
[2]
  CBF recovery, maximum: ≤ 90%
MACO mice; FIG. 8a, right MCA images
  thrombolytic activity: able to dissolve the thrombus
MACO mice; rtPA 10 mg kg^−1
  time to partial thrombolysis: approximately 80 minutes
MACO mice; within 120 minutes, rtPA 10 mg kg^−1
  blood flow restored (CBF): approximately 80%
[3]
  number of Ki-67^+ cells: no significant difference
